Experimental data taken from US10782295B2, “Cysteine-reactive ligand discovery in proteomes” (THE SCRIPPS RESEARCH INSTITUTE, priority 2013, dated 2020).

Experiment: competitive isoTOP-ABPP, proteome-wide cysteine reactivity
Type: binding, human
Conditions: for proteome reactivity profile, high sensitivity (R>5) cysteine targets: 100 μM LDE, 60 min
Method: Here, we envisioned that isoTOP-ABPP could be advanced to discover and quantify reactions between cysteines in proteomes and any electrophilic compound. In this advanced, ‘competitive’ version of isoTOP-ABPP (FIG. 1a), a proteome is treated with an electrophile (experimental sample) or DMSO (control sample). Both proteomic samples are then labeled with the IA probe and conjugated by CuAAC to light and heavy azide-biotin tags, respectively. The light and heavy samples are then mixed and subjected to our described isoTOP-ABPP protocol for enrichment, identification, and quantification of IA-labeled cysteines^30. Electrophile-modified cysteines are quantified by measuring the MS1 chromatographic peak ratios (R values) for heavy (DMSO-treated) over light (electrophile-treated) samples, with higher R values reflecting greater sensitivity to the electrophile. In this format, competitive isoTOP-ABPP can assay electrophiles against 1000+ cysteines in parallel directly in native proteomes without requiring any chemical modification to the electrophiles themselves.
Competitive isoTOP-ABPP experiments were performed in quadruplicate using the soluble proteome of the human breast cancer cell line MDA-MB-231 cell line. Proteomes were treated with 100 μM HNE, 15d-PGJ2, or 2-HD, for 60 minutes, followed by the IA-probe (100 μM, 60 min) A total of ˜1400 cysteine reactivities were quantified across the aggregate data set, with at least 900 cysteine reactivities quantified for each LDE (FIG. 2a) more than 750 of which were quantified for all the three electrophiles.
The MDA-MB-231 cell proteome was treated with varying concentrations of HNE (5, 10, 50, 100 and 500 μM) for 60 min and then the IA-labeling profile of each reaction was quantitatively compared to a DMSO-control sample by isoTOP-ABPP.
By combining the R values at all 5 HNE concentrations, we could extrapolate IC50 values for […] of IA probe-labeling for ˜700 of the 1100 cysteines (FIG. 3a).
HNE was purchased from EMD biosciences, 15d-PGJ2 was purchased from Cayman Chemicals and 2-HD was purchased from Santa Cruz Biotechnology. Proteome samples were diluted to a 4 mg protein/mL solution in PBS. For each profiling experiment, one aliquot of the proteome sample (0.5 mL) was treated with 100 μM of LDE using 5 μL of a 10 mM stock and the other aliquot was treated with 5 μL of either ethanol (for HNE and 15d-PGJ2) or DMSO (for 2-HD) as control. For the concentration-dependent profiling experiments using HNE, aliquots of the proteomes (0.5 mL each) were treated with 5, 10, 50, 100 and 500 μM of HNE using 5 μL of 0.5, 1.0, 5, 10 and 50 mM of stock solution, respectively. […]

Compound | proteome reactivity profile, high sensitivity (R>5) cysteine targets | IC50 (~700 of 1100 cysteines, 5 HNE concentrations, read-out: IC50 for blockade of IA probe-labeling, vast majority of cysteines)
CCCCCCCCCCCCC/C=C/C=O [2-HD, 2-trans-hexadecenal] | no detectable high sensitivity (R>5) targets | 
CCCCCC(O)/C=C/C=O (stereo not shown) [4-HNE, 4-Hydroxynonenal] | targeting several cysteines in the proteome | > 100 µM
CCCCC/C=C/C=C1/C(=O)C=C[C@@H]1C/C=C\CCCC(=O)O [PGJ2, 15-deoxy-Δ12,14-prostaglandin J2] | targeting several cysteines in the proteome | 
